In US20260223850A1, “SUBSTITUTED PYRROLIDONE COMPOUND, PREPARATION METHOD THEREFOR, COMPOSITION AND APPLICATION THEREOF” (QINGDAO KINGAGROOT CHEMICAL COMPOUND CO., LTD., priority 2023, published 2026):

What was measured:
Assay type in all cases: in vivo
Huaidao (rice cultivar) = experiment: Seedling stage sealing experiment for water-seeding (crop safety); conditions: 120 g a.i./ha, seedling stage sealing, 15 days, fresh weight control rate
Summary of the method: (§1)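 Seeds broadcast on soil in nutrition bowls, covered, kept moist in a water-filled box; compound in acetone diluted with water and spray-tower applied at 120, 60, 30 and 15 g a.i./ha, triplicate. Scored after 15 days in greenhouse on a 0–9 scale of fresh-weight growth control, averaged.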

Leptochloa chinensis = experiment: Seedling stage sealing experiment for water-seeding; conditions: 120 g a.i./ha, 15 days, fresh weight control rate
Summary of the method: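 Seeds sown in soil-filled bowls kept moist in water-filled boxes; compound in acetone diluted with water and spray-applied at 120, 60, 30 and 15 g a.i./ha, triplicate. After 15 days in greenhouse, fresh-weight growth control scored on a 0–9 scale (9 = dead, 0 = no effect), averaged.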

Echinochloa crusgalli = experiment: as above; conditions: 120 g a.i./ha, 15 days, fresh weight control rate
Echinochloa phyllopogon = experiment: as above; conditions: 120 g a.i./ha, 15 days, fresh weight control rate
Summary of the method: as §1

Digitaria sanguinalis = experiment: as above; conditions: 120 g a.i./ha, 15 days, fresh weight control rate
Summary of the method: as §1

[1] = spray, seedling stage sealing for water-seeding

Cc1cccc([C@H]2CN(C)C(=O)[C@@H]2C(=O)Nc2cnn(C)c2Cl)c1 [17′]
Huaidao (rice cultivar) plant damage level (Huaidao (rice cultivar)): 0 | Leptochloa chinensis activity level (growth control rate) (Leptochloa chinensis): 9 | Echinochloa crusgalli activity level (growth control rate) (Echinochloa crusgalli; seedling stage sealing): 9 | Echinochloa phyllopogon activity level (growth control rate) (Echinochloa phyllopogon; seedling stage sealing): 6 (Level 6: growth control rate greater than or equal to 70% and less than 80%)

CN1C[C@H](c2cccc(C(F)(F)F)c2)[C@@H](C(=O)Nc2cnn(C)c2C(F)(F)F)C1=O [538′]
Digitaria sanguinalis activity level (growth control rate) (Digitaria sanguinalis; [1]): 9 | Echinochloa crusgalli activity level (growth control rate) (Echinochloa crusgalli; [1]): 9 | Echinochloa phyllopogon activity level (growth control rate) (Echinochloa phyllopogon; [1]): 9

CCc1c(NC(=O)[C@H]2C(=O)N(C)C[C@@H]2c2cc(C)cc(C)c2)cnn1C(F)F [544′]
Digitaria sanguinalis activity level (growth control rate) (Digitaria sanguinalis; [1]): 9 | Echinochloa crusgalli activity level (growth control rate) (Echinochloa crusgalli; [1]): 9 | Echinochloa phyllopogon activity level (growth control rate) (Echinochloa phyllopogon; [1]): 9

COCn1ncc(NC(=O)[C@H]2C(=O)N(C)C[C@@H]2c2cc(C)cc(C)c2)c1C1CC1 [549′]
Digitaria sanguinalis activity level (growth control rate) (Digitaria sanguinalis; [1]): 9 | Echinochloa crusgalli activity level (growth control rate) (Echinochloa crusgalli; [1]): 9 | Echinochloa phyllopogon activity level (growth control rate) (Echinochloa phyllopogon; [1]): 9

CN1C[C@H](c2cc(Br)cc(C(F)(F)F)c2)[C@@H](C(=O)Nc2cnn(C(F)F)c2Cl)C1=O [557′]
Digitaria sanguinalis activity level (growth control rate) (Digitaria sanguinalis; [1]): 9 | Echinochloa crusgalli activity level (growth control rate) (Echinochloa crusgalli; [1]): 9 | Echinochloa phyllopogon activity level (growth control rate) (Echinochloa phyllopogon; [1]): 6 (Level 6: growth control rate greater than or equal to 70% and less than 80%)

CN1CC(c2cccc(C(F)(F)F)c2)C(C(=O)Nc2cnn(C)c2Cl)C1=O (stereo not drawn) [Compound 1]
Digitaria sanguinalis activity level (growth control rate) (Digitaria sanguinalis; seedling stage sealing): 9 | Echinochloa crusgalli activity level (growth control rate) (Echinochloa crusgalli; seedling stage sealing): 9 | Echinochloa phyllopogon activity level (growth control rate) (Echinochloa phyllopogon; seedling stage sealing): 9

CN1CC(c2cccc(F)c2)C(C(=O)Nc2cnn(C)c2Cl)C1=O (stereo not drawn) [Compound 15]
Digitaria sanguinalis activity level (growth control rate) (Digitaria sanguinalis; seedling stage sealing): 9 | Echinochloa crusgalli activity level (growth control rate) (Echinochloa crusgalli; seedling stage sealing): 9 | Echinochloa phyllopogon activity level (growth control rate) (Echinochloa phyllopogon; seedling stage sealing): 6 (Level 6: growth control rate greater than or equal to 70% and less than 80%)

C=CCOc1cccc(C2CN(C)C(=O)C2C(=O)Nc2cnn(C)c2Cl)c1 (stereo not drawn) [Compound 30]
Digitaria sanguinalis activity level (growth control rate) (Digitaria sanguinalis; seedling stage sealing): 9 | Echinochloa crusgalli activity level (growth control rate) (Echinochloa crusgalli; seedling stage sealing): 9 | Echinochloa phyllopogon activity level (growth control rate) (Echinochloa phyllopogon; seedling stage sealing): 9

CN1CC(c2ccc(F)c(C(F)(F)F)c2)C(C(=O)Nc2cnn(C)c2Cl)C1=O (stereo not drawn) [Compound 54]
Huaidao (rice cultivar) plant damage level (Huaidao (rice cultivar)): 0 | Leptochloa chinensis activity level (growth control rate) (Leptochloa chinensis): 9 | Echinochloa crusgalli activity level (growth control rate) (Echinochloa crusgalli; seedling stage sealing): 9 | Echinochloa phyllopogon activity level (growth control rate) (Echinochloa phyllopogon; seedling stage sealing): 9

CN1CC(c2cc(F)cc(C(F)(F)F)c2)C(C(=O)Nc2cnn(C)c2Cl)C1=O (stereo not drawn) [Compound 67]
Leptochloa chinensis activity level (growth control rate) (Leptochloa chinensis): 9 | Echinochloa crusgalli activity level (growth control rate) (Echinochloa crusgalli; seedling stage sealing): 9 | Echinochloa phyllopogon activity level (growth control rate) (Echinochloa phyllopogon; seedling stage sealing): 6 (Level 6: growth control rate greater than or equal to 70% and less than 80%)

CN1CC(c2cc(C(F)(F)F)ccc2F)C(C(=O)Nc2cnn(C)c2Cl)C1=O (stereo not drawn) [Compound 80]
Leptochloa chinensis activity level (growth control rate) (Leptochloa chinensis): 6 (Level 6: growth control rate greater than or equal to 70% and less than 80%) | Echinochloa crusgalli activity level (growth control rate) (Echinochloa crusgalli; seedling stage sealing): 6 (Level 6: growth control rate greater than or equal to 70% and less than 80%) | Echinochloa phyllopogon activity level (growth control rate) (Echinochloa phyllopogon; seedling stage sealing): 6 (Level 6: growth control rate greater than or equal to 70% and less than 80%)

CCn1ncc(NC(=O)C2C(=O)N(C)CC2c2cccc(C(F)(F)F)c2)c1Cl (stereo not drawn) [Compound 95]
Leptochloa chinensis activity level (growth control rate) (Leptochloa chinensis): 9 | Echinochloa crusgalli activity level (growth control rate) (Echinochloa crusgalli; seedling stage sealing): 6 (Level 6: growth control rate greater than or equal to 70% and less than 80%) | Echinochloa phyllopogon activity level (growth control rate) (Echinochloa phyllopogon; seedling stage sealing): 6 (Level 6: growth control rate greater than or equal to 70% and less than 80%)

CC(C)n1ncc(NC(=O)C2C(=O)N(C)CC2c2cccc(C(F)(F)F)c2)c1Cl (stereo not drawn) [Compound 97]
Leptochloa chinensis activity level (growth control rate) (Leptochloa chinensis): 9 | Echinochloa crusgalli activity level (growth control rate) (Echinochloa crusgalli; seedling stage sealing): 9 | Echinochloa phyllopogon activity level (growth control rate) (Echinochloa phyllopogon; seedling stage sealing): 7 (Level 7: growth control rate greater than or equal to 80% and less than 90%)

CN1CC(c2cc(F)cc(F)c2)C(C(=O)Nc2cnn(C)c2Cl)C1=O (stereo not drawn) [Compound 115]
Leptochloa chinensis activity level (growth control rate) (Leptochloa chinensis): 6 (Level 6: growth control rate greater than or equal to 70% and less than 80%) | Echinochloa crusgalli activity level (growth control rate) (Echinochloa crusgalli; seedling stage sealing): 9 | Echinochloa phyllopogon activity level (growth control rate) (Echinochloa phyllopogon; seedling stage sealing): 6 (Level 6: growth control rate greater than or equal to 70% and less than 80%)

CN1CC(c2ccccc2)C(C(=O)Nc2cnn(C)c2Cl)C1=O (stereo not drawn) [Compound 121]
Huaidao (rice cultivar) plant damage level (Huaidao (rice cultivar)): 0 | Leptochloa chinensis activity level (growth control rate) (Leptochloa chinensis): 6 (Level 6: growth control rate greater than or equal to 70% and less than 80%) | Echinochloa crusgalli activity level (growth control rate) (Echinochloa crusgalli; seedling stage sealing): 9 | Echinochloa phyllopogon activity level (growth control rate) (Echinochloa phyllopogon; seedling stage sealing): 9

CN1CC(c2cccc(Br)c2)C(C(=O)Nc2cnn(C)c2Cl)C1=O (stereo not drawn) [Compound 126]
Leptochloa chinensis activity level (growth control rate) (Leptochloa chinensis): 9 | Echinochloa crusgalli activity level (growth control rate) (Echinochloa crusgalli; seedling stage sealing): 7 (Level 7: growth control rate greater than or equal to 80% and less than 90%) | Echinochloa phyllopogon activity level (growth control rate) (Echinochloa phyllopogon; seedling stage sealing): 7 (Level 7: growth control rate greater than or equal to 80% and less than 90%)

CN1CC(c2cccc(C(F)(F)F)c2)C(C(=O)Nc2cnn(C3CC3)c2Cl)C1=O (stereo not drawn) [Compound 164]
Leptochloa chinensis activity level (growth control rate) (Leptochloa chinensis): 9 | Echinochloa crusgalli activity level (growth control rate) (Echinochloa crusgalli; seedling stage sealing): 7 (Level 7: growth control rate greater than or equal to 80% and less than 90%) | Echinochloa phyllopogon activity level (growth control rate) (Echinochloa phyllopogon; seedling stage sealing): 6 (Level 6: growth control rate greater than or equal to 70% and less than 80%)

Cc1cc(C)cc(C2CN(C)C(=O)C2C(=O)Nc2c(O)nn(C)c2F)c1 (stereo not drawn) [Compound 286]
Leptochloa chinensis activity level (growth control rate) (Leptochloa chinensis): 9 | Echinochloa crusgalli activity level (growth control rate) (Echinochloa crusgalli; seedling stage sealing): 9 | Echinochloa phyllopogon activity level (growth control rate) (Echinochloa phyllopogon; seedling stage sealing): 7 (Level 7: growth control rate greater than or equal to 80% and less than 90%)

CN1CC(c2ccc(F)cc2F)C(C(=O)Nc2cnn(C)c2Cl)C1=O (stereo not drawn) [Compound 304]
Leptochloa chinensis activity level (growth control rate) (Leptochloa chinensis): 5 (Level 5: growth control rate greater than or equal to 50% and less than 70%) | Echinochloa crusgalli activity level (growth control rate) (Echinochloa crusgalli; seedling stage sealing): 7 (Level 7: growth control rate greater than or equal to 80% and less than 90%) | Echinochloa phyllopogon activity level (growth control rate) (Echinochloa phyllopogon; seedling stage sealing): 6 (Level 6: growth control rate greater than or equal to 70% and less than 80%)

COc1cccc(C2CN(C)C(=O)C2C(=O)Nc2cnn(C)c2Cl)c1F (stereo not drawn) [Compound 307]
Leptochloa chinensis activity level (growth control rate) (Leptochloa chinensis): 5 (Level 5: growth control rate greater than or equal to 50% and less than 70%) | Echinochloa crusgalli activity level (growth control rate) (Echinochloa crusgalli; seedling stage sealing): 6 (Level 6: growth control rate greater than or equal to 70% and less than 80%) | Echinochloa phyllopogon activity level (growth control rate) (Echinochloa phyllopogon; seedling stage sealing): 6 (Level 6: growth control rate greater than or equal to 70% and less than 80%)

CN1CC(c2ccc(Cl)c(Cl)c2)C(C(=O)Nc2cnn(C)c2Cl)C1=O (stereo not drawn) [Compound 309]
Leptochloa chinensis activity level (growth control rate) (Leptochloa chinensis): 9 | Echinochloa crusgalli activity level (growth control rate) (Echinochloa crusgalli; seedling stage sealing): 6 (Level 6: growth control rate greater than or equal to 70% and less than 80%) | Echinochloa phyllopogon activity level (growth control rate) (Echinochloa phyllopogon; seedling stage sealing): 5 (Level 5: growth control rate greater than or equal to 50% and less than 70%)

CN1CC(c2ccc(F)c(Cl)c2)C(C(=O)Nc2cnn(C)c2Cl)C1=O (stereo not drawn) [Compound 310]
Leptochloa chinensis activity level (growth control rate) (Leptochloa chinensis): 9 | Echinochloa crusgalli activity level (growth control rate) (Echinochloa crusgalli; seedling stage sealing): 9 | Echinochloa phyllopogon activity level (growth control rate) (Echinochloa phyllopogon; seedling stage sealing): 8 (Level 8: growth control rate greater than or equal to 90% and less than 100%)

Cc1ccc(C2CN(C)C(=O)C2C(=O)Nc2cnn(C)c2Cl)cc1C (stereo not drawn) [Compound 314]
Leptochloa chinensis activity level (growth control rate) (Leptochloa chinensis): 9 | Echinochloa crusgalli activity level (growth control rate) (Echinochloa crusgalli; seedling stage sealing): 7 (Level 7: growth control rate greater than or equal to 80% and less than 90%) | Echinochloa phyllopogon activity level (growth control rate) (Echinochloa phyllopogon; seedling stage sealing): 6 (Level 6: growth control rate greater than or equal to 70% and less than 80%)

COc1cc(C2CN(C)C(=O)C2C(=O)Nc2cnn(C)c2Cl)ccc1F (stereo not drawn) [Compound 320]
Leptochloa chinensis activity level (growth control rate) (Leptochloa chinensis): 5 (Level 5: growth control rate greater than or equal to 50% and less than 70%) | Echinochloa crusgalli activity level (growth control rate) (Echinochloa crusgalli; seedling stage sealing): 6 (Level 6: growth control rate greater than or equal to 70% and less than 80%) | Echinochloa phyllopogon activity level (growth control rate) (Echinochloa phyllopogon; seedling stage sealing): 6 (Level 6: growth control rate greater than or equal to 70% and less than 80%)

COc1cc(C2CN(C)C(=O)C2C(=O)Nc2cnn(C)c2Cl)ccc1C (stereo not drawn) [Compound 321]
Leptochloa chinensis activity level (growth control rate) (Leptochloa chinensis): 6 (Level 6: growth control rate greater than or equal to 70% and less than 80%) | Echinochloa crusgalli activity level (growth control rate) (Echinochloa crusgalli; seedling stage sealing): 5 (Level 5: growth control rate greater than or equal to 50% and less than 70%) | Echinochloa phyllopogon activity level (growth control rate) (Echinochloa phyllopogon; seedling stage sealing): 5 (Level 5: growth control rate greater than or equal to 50% and less than 70%)

CN1CC(c2cc(F)c(F)c(F)c2)C(C(=O)Nc2cnn(C)c2F)C1=O (stereo not drawn) [Compound 323]
Leptochloa chinensis activity level (growth control rate) (Leptochloa chinensis): 6 (Level 6: growth control rate greater than or equal to 70% and less than 80%) | Echinochloa crusgalli activity level (growth control rate) (Echinochloa crusgalli; seedling stage sealing): 5 (Level 5: growth control rate greater than or equal to 50% and less than 70%) | Echinochloa phyllopogon activity level (growth control rate) (Echinochloa phyllopogon; seedling stage sealing): 5 (Level 5: growth control rate greater than or equal to 50% and less than 70%)

CN1CC(c2cc(F)c(F)c(F)c2)C(C(=O)Nc2c(O)nn(C)c2F)C1=O (stereo not drawn) [Compound 324]
Leptochloa chinensis activity level (growth control rate) (Leptochloa chinensis): 9 | Echinochloa crusgalli activity level (growth control rate) (Echinochloa crusgalli; seedling stage sealing): 7 (Level 7: growth control rate greater than or equal to 80% and less than 90%) | Echinochloa phyllopogon activity level (growth control rate) (Echinochloa phyllopogon; seedling stage sealing): 7 (Level 7: growth control rate greater than or equal to 80% and less than 90%)

COc1c(Cl)ccc(C2CN(C)C(=O)C2C(=O)Nc2c(O)nn(C)c2F)c1F (stereo not drawn) [Compound 331]
Leptochloa chinensis activity level (growth control rate) (Leptochloa chinensis): 9 | Echinochloa crusgalli activity level (growth control rate) (Echinochloa crusgalli; seedling stage sealing): 9 | Echinochloa phyllopogon activity level (growth control rate) (Echinochloa phyllopogon; seedling stage sealing): 7 (Level 7: growth control rate greater than or equal to 80% and less than 90%)
